Laboratory results reported in patent US20230116196A1, “METHOD OF TREATING CNS DISORDERS WITH NEU[…] GABAERGIC COMPOUNDS” (priority 2017, published 2023).
Where two headings read alike, the source gives them in different places.

How the values were obtained:
α1β2γ2 GABAA receptors = biological target: T1, α1β2γ2 GABAA receptors (Homo sapiens, UniProt P14867+P18507+P47870); test: Whole-cell patch clamp: potentiation of GABA EC20 currents at recombinant α1β2γ2 GABAA receptors; assay type: cell-based
T1 construct: expressed in transfected cells; host or cells: LTK cells, stably transfected
Protocol: Cellular electrophysiology was used to measure the pharmacological properties of ALLO, ganaxolone and SGE-516 in heterologous cell systems. Compounds were tested for their ability to affect GABA mediated currents at a submaximal agonist dose (GABA EC20=2 μM).
LTK cells were stably transfected with the α1β2γ2 subunits of the GABA receptor and CHO cells are transiently transfected with the α4β3γ subunits via the Lipofecatamine method. Cells were passaged at a confluence of about 50-80% and then seeded onto 35 mm sterile culture dishes containing 2 ml culture complete medium without antibiotics or antimycotics. Cells were cultivated at a density that enabled the recording of single cells without visible connections to other cells.
Whole-cell currents were measured with HEKA EPC-10 amplifiers using PatchMaster software. Bath solution for all experiments contained (in mM): NaCl 137, KCl 4, CaCl2 1.8, MgCl2 1, HEPES 10, D-Glucose 10, pH 7.4 with NaOH. Intracellular (pipette) solution contained (in mM): KCl 130, MgCl2 1, Mg-ATP 5, HEPES 10, EGTA 5, pH 7.2 with KOH. During experiments, cells and solutions were maintained at room temperature (19° C.-30° C.). For manual patchclamp recordings, cell culture dishes were placed on the dish holder of the microscope and continuously perfused (1 ml/min) with bath solution. After formation of a Gigaohm seal between the patch electrode and the cell (pipette resistance range: 2.5 MΩ-6.0MΩ; seal resistance range: >1 GΩ) the cell membrane across the pipette tip was ruptured to assure electrical access to the cell interior (whole-cell patch configuration).
Cells were voltage-clamped at a holding potential of −80 mV. GABAA receptors were activated by 2 μM GABA and compounds were sequentially applied at increasing concentrations for 30 s prior to a 2 s application of GABA. GABA and compounds were applied to cells via the Dynaflow perfusion system (Cellectricon, Sweden). Test compounds were dissolved in DMSO to form 10 mM stock solution and serially diluted to 0.01, 0.1, 1, and 10 μM in bath solution. […] All concentrations of test compound were tested on each cell. The relative percentage potentiation was defined as the peak amplitude in response to GABA EC20 in the presence of test compound divided by the peak amplitude in response to GABA EC20 alone, multiplied by 100.
ALLO and ganaxolone are known PAMs of both synaptic and extrasynaptic GABAAR-mediated currents. […] The α1β2γ2 or α4β3δ subunit combinations were chosen as representatives of typical synaptic and extrasynaptic GABAA receptors respectively.

[1] = test system: dentate gyrus granule cells (DGGCs); test: Acute NAS exposure: phasic currents (sIPSCs) in DGGCs of hippocampal slices; assay type: cell-based, mouse; conditions: for mean sIPSC amplitude before versus during exposure / mean sIPSC decay time in the presence of NAS: 100 nM acute; for sIPSC Amplitude / sIPSC Decay / sIPSC Frequency: during acute 100 nM exposure
Protocol: Brain slices were prepared from 3- to 5-week-old male C57 mice. Mice were anesthetized with isoflurane, decapitated, and brains were rapidly removed and submerged in ice-cold cutting solution containing (mM): 126 NaCl, 2.5 KCl, 0.5 CaCl2, 2 MgCl2, 26 NaHCO3, 1.25 NaH2PO4, 10 glucose, 1.5 sodium pyruvate, and 3 kynurenic acid. Coronal 310 μm thick slices were cut with the vibratome VT1000S (Leica Microsystems, St Louis, Mo., USA). The slices were then transferred into incubation chamber filled with prewarmed (31-32° C.) oxygenated artificial cerebro-spinal fluid (ACSF) of the following composition (in mM): 126 NaCl, 2.5 KCl, 2 CaCl2, 2 MgCl2, 26 NaHCO3, 1.25 NaH2PO4, 10 glucose, 1.5 sodium pyruvate, 1 glutamine, 3 kynurenic acid and 0.005 GABA bubbled with 95% O2-5% CO2. Slices were allowed to recover at 32° C. for at least 1 hr before recording. Exogenous GABA was added in an attempt to standardize ambient GABA in the slice and provide an agonist source for newly inserted extrasynaptic GABAARs.
After recovery, a single slice was transferred to a submerged, dual perfusion recording chamber (Warner Instruments, Hamden, Conn., USA) on the stage of an upright microscope (Nikon FN-1) with a 40× water immersion objective equipped with DIC/IR optics. Slices were maintained at 32° C. and gravity-superfused with ACSF solution throughout experimentation and perfused at rate of 2 ml/min with oxygenated (O2/CO2 95/5%) ACSF.
Whole-cell currents were recorded from the dentate gyrus granule cells (DGGCs) in 310-μm-thick coronal hippocampal slices. Patch pipettes (5-7MΩ) were pulled from borosilicate glass (World Precision Instruments) and filled with intracellular solution of the composition (in mM) as follows: 140 CsCl, 1 MgCl2, 0.1 EGTA, 10 HEPES, 2 Mg-ATP, 4 NaCl and 0.3 Na-GTP (pH=7.2 with CsOH). A 5 min period for stabilization after obtaining the whole-cell recording conformation (holding potential of −60 mV) was allowed before currents were recorded using an Axopatch 200B amplifier (Molecular Devices), low-pass filtered at 2 kHz, digitized at 20 kHz (Digidata 1440A; Molecular Devices), and stored for offline analysis.
For tonic current measurements, an all-points histogram was plotted for a 10 s period before and during 100 μM picrotoxin application, once the response reached a plateau level. Recordings with unstable baselines were discarded. Fitting the histogram with a Gaussian distribution gave the mean baseline current amplitude and the difference between the amplitudes before and during picrotoxin was considered to be the tonic current. The negative section of the all-points histogram which corresponds to the inward IPSCs was not fitted with a Gaussian distribution (Kretschmannova et al., 2013; Nusser and Mody, 2002). Series resistance and whole-cell capacitance were continually monitored and compensated throughout the course of the experiment. Recordings were eliminated from data analysis if series resistance increased by >20%. Spontaneous inhibitory post-synaptic currents (sIPSCs) were analyzed using the mini-analysis software (version 5.6.4; Synaptosoft, Decatur, Ga.). Minimum threshold detection was set to 3 times the value of baseline noise signal. To assess sIPSC kinetics, the recording trace was visually inspected and only events with a stable baseline, sharp rising phase, and single peak were used to negate artifacts due to event summation. Only recordings with a minimum of 200 events fitting these criteria were analyzed. sIPSCs amplitude, and frequency from each experimental condition was pooled and expressed as mean±SEM. To measure sIPSC decay, 100 consecutive events were averaged and the decay was fitted to a double exponential and the weighted decay constant (tw) was determined. Statistical analysis was performed by using Student t-test (paired and unpaired where appropriate), where p<0.05 is considered significant. […]

[2] = test system: GABA receptor trafficking; test: GABA receptor trafficking measured by GABAergic current density; assay type: cell-based
Excerpt: As shown in above examples, not all neurosteroids can modulate GABA receptor trafficking.

T1 sequence (P14867 28-456): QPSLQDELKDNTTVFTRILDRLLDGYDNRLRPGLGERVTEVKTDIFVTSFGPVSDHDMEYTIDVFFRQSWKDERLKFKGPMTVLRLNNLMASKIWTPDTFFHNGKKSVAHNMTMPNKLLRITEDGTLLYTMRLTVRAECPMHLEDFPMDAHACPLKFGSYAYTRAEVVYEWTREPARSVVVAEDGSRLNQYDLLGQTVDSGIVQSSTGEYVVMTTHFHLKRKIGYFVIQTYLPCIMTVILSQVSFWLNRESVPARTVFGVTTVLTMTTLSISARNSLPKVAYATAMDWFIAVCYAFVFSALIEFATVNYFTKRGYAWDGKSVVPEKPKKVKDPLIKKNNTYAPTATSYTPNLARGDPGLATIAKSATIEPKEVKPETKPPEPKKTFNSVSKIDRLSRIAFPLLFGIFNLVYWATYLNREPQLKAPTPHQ
T1 sequence (P47870 25-512 limits assumed): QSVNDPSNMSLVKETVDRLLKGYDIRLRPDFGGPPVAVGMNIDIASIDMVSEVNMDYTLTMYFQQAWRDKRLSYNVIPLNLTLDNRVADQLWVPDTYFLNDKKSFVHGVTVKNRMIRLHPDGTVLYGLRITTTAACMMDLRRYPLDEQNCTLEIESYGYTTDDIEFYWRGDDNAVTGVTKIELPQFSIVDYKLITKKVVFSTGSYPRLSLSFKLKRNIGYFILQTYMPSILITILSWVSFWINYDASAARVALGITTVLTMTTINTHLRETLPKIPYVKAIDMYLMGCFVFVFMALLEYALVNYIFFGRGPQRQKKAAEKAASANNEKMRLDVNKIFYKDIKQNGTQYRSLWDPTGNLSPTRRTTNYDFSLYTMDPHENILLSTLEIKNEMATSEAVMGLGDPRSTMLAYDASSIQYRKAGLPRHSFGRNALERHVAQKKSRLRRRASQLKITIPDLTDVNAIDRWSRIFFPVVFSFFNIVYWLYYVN
T1 sequence (P18507 40-475): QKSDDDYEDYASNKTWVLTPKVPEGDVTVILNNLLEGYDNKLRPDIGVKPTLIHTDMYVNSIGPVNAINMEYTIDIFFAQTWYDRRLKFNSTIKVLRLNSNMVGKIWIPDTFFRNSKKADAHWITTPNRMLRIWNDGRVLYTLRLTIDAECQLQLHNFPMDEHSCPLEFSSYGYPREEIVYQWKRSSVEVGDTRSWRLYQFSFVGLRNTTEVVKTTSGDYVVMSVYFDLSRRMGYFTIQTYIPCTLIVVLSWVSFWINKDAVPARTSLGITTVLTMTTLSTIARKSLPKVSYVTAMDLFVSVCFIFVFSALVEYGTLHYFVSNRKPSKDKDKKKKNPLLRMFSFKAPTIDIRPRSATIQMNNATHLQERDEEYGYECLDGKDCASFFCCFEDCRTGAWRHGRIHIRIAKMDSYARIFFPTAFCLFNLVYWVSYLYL

| SMILES | pEC50 ± S.E.M., α1β2γ2 (α1β2γ2 GABAA receptors; potentiation of current at GABA EC20 (2 μM), n = 3) | mean sIPSC amplitude before versus during exposure [1] | mean sIPSC decay time in the presence of NAS [1] | sIPSC Amplitude [1] | sIPSC Decay [1] | sIPSC Frequency [1] | modulation of GABA receptor trafficking [2] | EC50 (α1β2γ2 GABAA receptors) | EC50 (α1β2γ2 GABAA receptors; potentiation of current at GABA EC20 (2 μM), n = 3, read-out: EC50, α1β2γ2) | Emax (α1β2γ2 GABAA receptors; relative percentage potentiation of GABA EC20 current, read-out: Emax ± S.E.M., α1β2γ2) |
| --- | --- | --- | --- | --- | --- | --- | --- | --- | --- | --- |
| CC(=O)[C@H]1CC[C@H]2[C@@H]3CC[C@H]4C[C@H](O)CC[C@]4(C)[C@H]3CC[C@]12C [ALLO, Allopregnanolone] | 6.9 ± 0.2 | no significant difference | significantly increased | 39.1 pA | 19.2 ms | 3.4 Hz | modulated |  |  |  |
| CC(=O)[C@H]1CC[C@H]2[C@@H]3CC[C@H]4C[C@](C)(O)CC[C@]4(C)[C@H]3CC[C@]12C [Ganaxolone] |  | no significant difference | significantly increased | 55.1 pA | 23.8 ms | 5.6 Hz | did not modulate | 251 nM |  |  |
| C[C@@]1(O)CC[C@@]2(C)[C@H](CC[C@@H]3[C@@H]2CC[C@]2(C)[C@@H](C(=O)Cn4nccn4)CC[C@@H]32)C1 [SGE-516] |  | no significant difference | significantly increased | 52.9 pA | 15.1 ms | 4.6 Hz | modulated |  | 61 nM | 219% |
